The values that follow come from patent publication US20090169494A1, “Sunscreen cosmetic composition” (Shiseido Company Ltd, priority 2005, published 2009).

A short description of the data set: Solubility of the triazine UV absorbent in oil components A-E. The format is physicochemical. As to conditions: dissolved at 80° C., three days stirring at 0° C., supernatant absorbance at 342.8 nm; FIG. 1. As for the experimental part: Solubility of 2,4-bis[[4-(2-ethylhexyloxy)-2-hydroxy]phenyl]-6-(4-methoxyphenyl)-1,3,5-triazine in the following oil components A-E was measured.
2,4-bis[[4-(2-ethylhexyloxy)-2-hydroxy]phenyl]-6-(4-methoxyphenyl)-1,3,5-triazine is heated and dissolved at 80° C. in each of the aforementioned oil components A-E. After the temperature naturally cools down to room temperature, a small amount of 2,4-bis[[4-(2-ethylhexyloxy)-2-hydroxy]phenyl]-6-(4-methoxyphenyl)-1,3,5-triazine in powder form is added, followed by three days of stirring and cooling (stirrer) at 0° C. After this, the supernatant solution is quickly sampled before the temperature rises and 30 mg (actual measurement) of it is diluted to 100 mL of ethyl acetate. The absorbance at 342.8 nm of the obtained diluted solution is measured. The obtained absorbance is plotted against a previously prepared calibration curve to determine the solubility.

`CCCCC(CC)COc1ccc(-n2nc3ccccc3n2)c(O)c1` (centres unmarked) [Oil component D, 2-[4-(2-ethylhexyloxy)-2-hydroxyphenyl]-2H-benzotriazole]: the “Solubility of 2,4-bis[[4-(2-ethylhexyloxy)-2-hydroxy]phenyl]-6-(4-methoxyphenyl)-1,3,5-triazine in the oil component” value is given as “particularly good”.
In the case of `CC(C)COc1ccc(-n2nc3ccccc3n2)c(O)c1` [Oil component E, 2-(2-hydroxy-4-isobutoxyphenyl)-2H-benzotriazole] it was “particularly good”.
